Test results as given in PubChem BioAssay (NCI).
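Following 48 hours of exposure in 96-well plates, responses at five concentrations were used to interpolate endpoints linearly. GI50: concentration for 50% inhibition of growth. At the TGI there is no net growth.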

Key:
Assay in all cases: DTP human tumour cell line panel, 48 h
CCRF-CEM leukemia = tested on: CCRF-CEM leukemia
HCT-15 colon = tested on: HCT-15 colon
HT29 colon = tested on: HT29 colon
IGROV1 ovarian = tested on: IGROV1 ovarian
LOX IMVI melanoma = tested on: LOX IMVI melanoma
OVCAR-8 ovarian = tested on: OVCAR-8 ovarian
SNB-19 CNS = tested on: SNB-19 CNS
SW-620 colon = tested on: SW-620 colon
DU-145 prostate = tested on: DU-145 prostate
UACC-62 melanoma = tested on: UACC-62 melanoma

Oc1ccc(I)c2cccnc12
TGI (CCRF-CEM leukemia): 9.68 µM | TGI (HCT-15 colon): > 100 µM | TGI (HT29 colon): > 100 µM | TGI (IGROV1 ovarian): 39.3 µM | TGI (LOX IMVI melanoma): 46.3 µM | TGI (OVCAR-8 ovarian): > 100 µM | TGI (SNB-19 CNS): > 100 µM | TGI (SW-620 colon): > 100 µM

N#C/C(=C\c1ccc(O)c(O)c1)C(=O)NCc1cccc(C(F)(F)F)c1
GI50 (DU-145 prostate): 12.1 µM | TGI (DU-145 prostate): 50.9 µM | GI50 (HCT-15 colon): 3.64 µM | TGI (HCT-15 colon): 46.3 µM | GI50 (HT29 colon): 22 µM | TGI (HT29 colon): 56.3 µM | GI50 (LOX IMVI melanoma): 11.4 µM | TGI (LOX IMVI melanoma): 26.4 µM | GI50 (OVCAR-8 ovarian): 10.2 µM | TGI (OVCAR-8 ovarian): 62.2 µM | GI50 (SNB-19 CNS): 19.4 µM | TGI (SNB-19 CNS): > 100 µM | GI50 (SW-620 colon): 9.33 µM | TGI (SW-620 colon): 31.3 µM | GI50 (UACC-62 melanoma): 10.2 µM | TGI (UACC-62 melanoma): 23.8 µM

NNC(=O)N/N=C(/CC1(O)C(=O)Nc2ccc(Br)cc21)c1ccccc1 (configuration not stated)
TGI (CCRF-CEM leukemia): 65.2 µM | TGI (HCT-15 colon): > 100 µM | TGI (HT29 colon): > 100 µM | TGI (IGROV1 ovarian): > 100 µM | TGI (LOX IMVI melanoma): 35.1 µM | TGI (SNB-19 CNS): 46.2 µM | TGI (SW-620 colon): > 100 µM | TGI (UACC-62 melanoma): 50.9 µM

Cc1c(Br)c(Br)c2c3c1nc(N1CCNCC1)n3CCC2
GI50 (DU-145 prostate): 1.67 µM | TGI (DU-145 prostate): 3.05 µM | GI50 (HCT-15 colon): 1.69 µM | TGI (HCT-15 colon): 3.33 µM | GI50 (HT29 colon): 1.51 µM | TGI (HT29 colon): 3.2 µM | GI50 (IGROV1 ovarian): 1.41 µM | TGI (IGROV1 ovarian): 3.12 µM | GI50 (LOX IMVI melanoma): 1.49 µM | TGI (LOX IMVI melanoma): 2.94 µM | GI50 (OVCAR-8 ovarian): 2.08 µM | TGI (OVCAR-8 ovarian): 5.46 µM | GI50 (SNB-19 CNS): 1.56 µM | TGI (SNB-19 CNS): 3.01 µM | GI50 (SW-620 colon): 1.55 µM | TGI (SW-620 colon): 3.09 µM | GI50 (UACC-62 melanoma): 1.62 µM | TGI (UACC-62 melanoma): 3.08 µM

CN(C)Cc1ccc(O)c(CN(C)C)n1
TGI (DU-145 prostate): > 100 µM | TGI (HCT-15 colon): > 100 µM | TGI (HT29 colon): > 100 µM | TGI (IGROV1 ovarian): > 100 µM | TGI (LOX IMVI melanoma): > 100 µM | TGI (OVCAR-8 ovarian): > 100 µM | TGI (SNB-19 CNS): > 100 µM | TGI (SW-620 colon): > 100 µM | TGI (UACC-62 melanoma): > 100 µM

COC12OCCN(C)C1=CC(=O)C1N=NCC12 (configuration not stated)
TGI (CCRF-CEM leukemia): > 100 µM | TGI (HCT-15 colon): > 100 µM | TGI (HT29 colon): > 100 µM | TGI (IGROV1 ovarian): > 100 µM | TGI (LOX IMVI melanoma): > 100 µM | TGI (OVCAR-8 ovarian): > 100 µM | TGI (SW-620 colon): > 100 µM | TGI (UACC-62 melanoma): > 100 µM

CCCCN(CCCC)CC(C(=O)Nc1ccc([N+](=O)[O-])cc1[N+](=O)[O-])/C(C)=N\NC(=O)c1ccncc1 (configuration not stated)
TGI (CCRF-CEM leukemia): > 100 µM | TGI (HCT-15 colon): > 100 µM | TGI (IGROV1 ovarian): > 100 µM | TGI (LOX IMVI melanoma): > 100 µM | TGI (OVCAR-8 ovarian): > 100 µM | TGI (SNB-19 CNS): > 100 µM | TGI (SW-620 colon): > 100 µM | TGI (UACC-62 melanoma): > 100 µM

NC(=S)N/N=C/C(O[C@@H](/C=N/NC(N)=S)CO)n1cnc2c(N)ncnc21 (some centres not stated)
TGI (CCRF-CEM leukemia): > 100 µM | TGI (HCT-15 colon): > 62 µM | TGI (HT29 colon): > 100 µM | TGI (IGROV1 ovarian): > 100 µM | TGI (LOX IMVI melanoma): > 100 µM | TGI (OVCAR-8 ovarian): > 100 µM | TGI (SNB-19 CNS): > 100 µM | TGI (SW-620 colon): > 53.7 µM | TGI (UACC-62 melanoma): > 100 µM

C/C(=C\CNc1ncnc2c1ncn2C1CCCCO1)COP(=O)(O)O (configuration not stated)
TGI (CCRF-CEM leukemia): > 100 µM | TGI (HCT-15 colon): > 100 µM | TGI (HT29 colon): > 100 µM | TGI (IGROV1 ovarian): > 100 µM | TGI (LOX IMVI melanoma): > 100 µM | TGI (OVCAR-8 ovarian): > 100 µM | TGI (SNB-19 CNS): > 100 µM | TGI (SW-620 colon): > 100 µM | TGI (UACC-62 melanoma): > 100 µM

O=C1CCC2(c3ccccc3)OCC([C@@H](O)c3ccccc3)N12 (some centres not stated)
TGI (CCRF-CEM leukemia): > 100 µM | TGI (HCT-15 colon): > 100 µM | TGI (HT29 colon): > 100 µM | TGI (IGROV1 ovarian): > 100 µM | TGI (LOX IMVI melanoma): > 100 µM | TGI (OVCAR-8 ovarian): > 100 µM | TGI (SNB-19 CNS): > 100 µM | TGI (SW-620 colon): > 100 µM | TGI (UACC-62 melanoma): > 100 µM
